Results taken from patent publication US11485734B2, “Beta-carbolines as positive allosteric modulators of the human serotonin receptor 2C (5-HT2C)” (Northwestern University, priority 2018, dated 2022).
“Also recorded” adds a separate entry of the source.

Key:
mice [1] = test: Marble Burying Task (MBT) in PCP-treated mice; type: in vivo; details: AJC-61 2 mg/kg; PCP 10 mg/kg i.p. 7 days b.i.d.; 30-minute MBT; listed as AJC-16
Procedure: FIG. 6. Marble Burying Task (MBT): Effect of Vehicle, PCP (10 mg/kg; i.p., 7 days; b.i.d.), and PCP+AJC-61 (2 mg/kg) in a 30-minute Marble Burying Task (MBT) paradigm.
(§1) Marble Burying (MB) and extent of shredding a standard type of rodent bedding (i.e., Nestlet Shredding) are both proven methods for assessing drug efficacy to treat obsessive-compulsive disorder and Tourette's syndrome. As such, we tested the effect on AJC-61 on Marble Burying and Nestlet Shredding.

[2] = molecular target: T1, human serotonin receptor 2C (5-HT2c) (Homo sapiens, UniProt P28335); test: 2C antagonist activity of selected compounds; type: cell-based
T1 sequence (P28335 33-458): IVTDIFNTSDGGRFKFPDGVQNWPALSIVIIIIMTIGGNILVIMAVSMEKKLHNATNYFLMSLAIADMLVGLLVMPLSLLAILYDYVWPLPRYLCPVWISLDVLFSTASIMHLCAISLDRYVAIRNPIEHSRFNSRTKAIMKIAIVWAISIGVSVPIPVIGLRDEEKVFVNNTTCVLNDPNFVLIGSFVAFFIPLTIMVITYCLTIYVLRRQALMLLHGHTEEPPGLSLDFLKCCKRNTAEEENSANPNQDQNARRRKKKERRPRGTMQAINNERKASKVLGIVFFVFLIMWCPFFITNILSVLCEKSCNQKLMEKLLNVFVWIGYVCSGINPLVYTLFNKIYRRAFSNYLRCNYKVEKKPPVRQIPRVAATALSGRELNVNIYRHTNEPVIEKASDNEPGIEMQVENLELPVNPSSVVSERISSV

mice [3] = test: Nestlet Shredding (NS) in PCP-treated mice; type: in vivo; details: AJC-61 2 mg/kg; PCP 10 mg/kg i.p. 7 days b.i.d.; 30-minute NS; listed as AJC-16
Procedure: FIG. 7. Nestlet Shredding (NS): Effect of Vehicle, PCP (10 mg/kg; i.p., 7 days; b.i.d.), and PCP+AJC-61 (2 mg/kg) in a 30-minute Nestlet Shredding (NS) paradigm.
as §1

mice [4] = test: Porsolt Forced Swim Test (FST) in PCP-treated mice; type: in vivo; details: AJC-61 2 mg/kg, PCP 10 mg/kg i.p. 7 days b.i.d., 6-min FST
Procedure: FIG. 5. Porsolt Forced Swim Test (FST). Effect of Vehicle, PCP (10 mg/kg; i.p., 7 days; b.i.d.), and PCP+AJC-61 (2 mg/kg), in a 6-min Porsolt Forced Swim Test (FST).
The Porsolt Forced Swim Test (FST) is a gold standard test for antidepressant action. In the FST, normal mice become immobile after being required to swim in a tank and begin to float instead of struggling to get out of the water. […] As such, we tested whether AJC-61 could increase the swim time in a FST.

mice [5] = test: PCP-induced increase in locomotor activity (LMA); type: in vivo; details: AJC-61 2 mg/kg, PCP 10 mg/kg, eight 15 minute intervals
Procedure: FIG. 2. […] The effect of AJC-61 (2 mg/kg) on PCP-induced (10 mg/kg) increase in locomotor activity in mice.
(§2) The ability of a test drug to block the increase in Locomotor Activity (LMA) produced by amphetamine or the glutamate receptor […], phencyclidine (PCP), has a high predictive value for the antipsychotic efficacy of the test drug for treating schizophrenia. […] As such, we tested the effect of AJC-61 on reducing LMA in mice that had been treated with amphetamine or PCP to increase LMA activity.

[6] = molecular target: T1, human serotonin receptor 2C (5-HT2c); test: 2C agonist activity of selected compounds; type: cell-based
5-HT2a receptor = 5-HT2a receptor (Homo sapiens, UniProt P28223); test: 2A agonist activity of selected compounds; type: cell-based
5-HT2a receptor, sequence (P28223 whole entry): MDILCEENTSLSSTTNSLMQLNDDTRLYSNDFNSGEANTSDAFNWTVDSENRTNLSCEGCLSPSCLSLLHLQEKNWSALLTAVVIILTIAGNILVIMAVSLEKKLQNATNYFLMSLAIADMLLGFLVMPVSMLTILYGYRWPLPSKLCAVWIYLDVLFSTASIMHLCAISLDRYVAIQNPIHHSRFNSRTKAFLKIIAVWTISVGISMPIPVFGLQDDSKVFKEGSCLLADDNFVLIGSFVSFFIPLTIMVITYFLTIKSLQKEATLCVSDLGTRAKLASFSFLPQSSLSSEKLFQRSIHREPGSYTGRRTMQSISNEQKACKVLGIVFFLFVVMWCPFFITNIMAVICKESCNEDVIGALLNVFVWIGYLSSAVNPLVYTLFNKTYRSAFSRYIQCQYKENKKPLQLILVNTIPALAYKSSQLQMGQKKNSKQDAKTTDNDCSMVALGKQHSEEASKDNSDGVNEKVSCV

mice [7] = test: Social Interaction in PCP-treated mice; type: in vivo; details: AJC-61 2 mg/kg; PCP 10 mg/kg i.p. 7 days b.i.d.; 10-minute paradigm
Procedure: FIG. 4. Social Interaction: Effect of Vehicle, PCP (10 mg/kg: i.p., 7 days: b.i.d.), and PCP+AJC-61 (2 mg/kg), on social behaviors (sniffling, following, and avoiding) and interaction with inanimate object (object exploration), in a 10-minute social interaction (SI) paradigm. Data were analyzed by one-way ANOVA comparing the effect of drug treatment on each behavior and are shown as mean±S.E.M. of time (s); n=10 pairs of mice per group.
A healthy mouse will vigorously explore a newly introduce mouse and retain the memory for that mouse for up to 24 hours. The loss of interest in exploring a novel mouse is considered a sign of negative symptoms.
PCP-treatment produces a deficit in social interaction which models negative symptoms in schizophrenia. These include lack of motivation, loss of interest in activities, diminished capacity for pleasure and spontaneous activity. We tested the effect of AJC-61 on Social Interaction in mice that had been treated with PCP, including a Social Behaviors that include sniffing, following, and avoiding and Object Exploration via interaction with an inanimate object.

22-month old mice = test: Novel Object Recognition in aged mice; type: in vivo; details: AJC-61 2 mg/kg
Procedure: FIG. 8. Novel Object Recognition: Effect on discrimination index (DI) of Vehicle and AJC-61 (2 mg/kg) on 2.5 month old mice and 22-month old mice Data are shown as mean±S.E.M. of exploration time (s): n=14 pairs of mice per group.
Aged mice show a decline in memory function beginning around 13-15 month of age. Drugs which enhance memory can be assessed using the Novel Object Recognition test and determination of the Discrimination Index (DI) as discussed above. As such, we tested whether AJC-61 could improve the DI for aged mice (i.e., 22-month old mice) versus young mice (i.e., 2.5 month old mice).

mice [8] = test: Amphetamine-induced increase in locomotor activity (LMA); type: in vivo; details: AJC-61 2 mg/kg, amphetamine 2.5 mg/kg, eight 15 minute intervals
Procedure: FIG. 1. […] The effect of AJC-61 (2 mg/kg) on amphetamine-induced (2.5 mg/kg) increase in locomotor activity in mice.
as §2

male C57BL/6J mice = test: Novel Object Recognition in PCP-treated mice; type: in vivo; details: AJC-61 2 mg/kg, PCP 10 mg/kg
Procedure: FIG. 3. Novel Object Recognition: Discrimination index (DI) for male C57BL/6J mice treated with Vehicle, PCP (10 mg/kg), and PCP+AJC-61 (2 mg/kg). Data are shown as mean±S.E.M. of exploration time (s) n=10 mice per group.
The Novel Object Recognition test in rodents is considered a valid model of spatial memory in man. […] Normal mice remember for ˜24 hours. The time to loss of the memory in aged mice can be as low as zero to less than 8 hours. As such, we tested the effect of AJC-61 on reducing the DI in mice that had been treated with PCP to reduce the DI.

## Oc1ccc2[nH]c3c(-c4cncnc4)nccc3c2c1 [AJC-61, 1-(pyrimidin-5-yl)-9H-pyrido[3,4-b]indol-6-61]
Mice [1]
  Number of marbles buried, PCP+AJC-61 versus PCP: significant decrease in the number of marbles buried
[2]
  IC50: > 10 µM
Mice [3]
  Percent nestlet shredded, PCP+AJC-61 versus PCP: significant decrease in the percent nestlet shredded
Mice [4]
  Immobility time, PCP+AJC-61 versus PCP: significantly decreased the immobility time
Mice [4]; listed as AJC-16
  Immobility time, PCP+AJC-61 versus PCP: Significant decrease in immobility time
Mice [5]
  Effect on PCP-induced increase in locomotor activity: blocked PCP-induced increase in locomotor activity; also recorded: blocked the PCP-induced increase in LAM
[6]
  2C agonist: inactive
5-HT2a receptor
  2A agonist: inactive
Mice [7]
  Object exploration (inanimate object): no significant change
  Social interaction: avoiding, PCP+AJC-61 versus PCP: significant decrease in avoiding
  Social interaction: following: no significant change
  Social interaction: sniffing, PCP+AJC-61 versus PCP: significant increase in sniffing
22-month old mice
  Discrimination index (DI), AJC-61 versus Vehicle: significant increase in the DI
Mice [8]
  Effect on amphetamine-induced increase in locomotor activity: blocked amphetamine-induced increase in locomotor activity; also recorded: blocked the amphetamine-induced increase in LMA
Male C57BL/6J mice
  Discrimination index (DI), PCP+AJC-61 versus PCP: significant increase in DI

## Fc1ccc2[nH]c3c(c2c1)CCNC3c1cncnc1 (stereo not drawn) [MJO-01-31]
[6]
  EC50: 10.1 nM
  Emax: 101%
5-HT2a receptor
  EC50: 54.6 nM
  Emax: 95%

## Oc1ccc2[nH]c3c(c2c1)CCNC3c1ccccc1O (stereo not drawn) [MJO-01-34]
[6]
  EC50: 85.9 nM
  Emax: 103%
5-HT2a receptor
  EC50: 106 nM
  Emax: 27%

## Clc1ccc2[nH]c3c(c2c1)CCNC3CCc1ccccc1 (stereo not drawn) [MJO-01-46]
[6]
  EC50: 5.37 nM
  Emax (2C agonist): 98%
5-HT2a receptor
  EC50: 11.3 nM
  Emax (2A agonist): 96%
